# Results: EP0085870A1, “Dibenz(b,e)oxepin derivatives and pharmaceutical compositions containing them” (KYOWA HAKKO KOGYO CO., LTD, priority 1982, dated 1983)
# Columns and labels:
# male dd-strain mice = assay: Acute toxicity test; assay type: in vivo; settings: mortality for 7 days after administration
# Protocol: Groups of male dd-strain mice (each croup consisting of five mice) weighing 20 + 1 g are used. Compound I are administered orally (po : 0.3 mg/g) or intraperitoneally (ip : 0.1 mg/g). The MLD lethal dose) is calculated from the mortality for 7 days after the administration to obtain the results given in Table 1.
# PCA response = assay: Antiasthmatic activity test: passive cutaneous anaphylaxis response (PCA response); assay type: in vivo, Wistar strain male rats; settings: Rattus norvegicus, rats; for minimal effective dose: po, minimum effective dose, depressing ratio of 50% or more counts as positive, read-out: MED; for inhibition in vivo at 10 mg/kg: Dose 10 mg/Kg PO; for inhibition in vivo at 25 mg/kg: Dose 25 mg/Kg PO; for inhibition in vivo at 50 mg/kg: Dose 50 mg/Kg PO; for inhibition in vivo at 100 mg/kg: Dose 100 mg/Kg PO; for inhibition in vivo at 2.5 mg/kg: Dose 2.5 mg/Kg PO; for inhibition in vivo at 5 mg/kg: Dose 5 mg/Kg PO
# Protocol: Antiasthmatic activity is evaluated according to passive cutaneous anaphylaxis response (PCA response). Antiserum is collected from Wistar strain male rats weighing 200 to 250 g. PCA response is evaluated using Wistar strain male rats weighing 100 to 120 g.
# One mg of egg albumin is dissolved in 0.5 ml of pertussisdiphtheria mixed vaccine, and the resulting solution is mixed with 0.5 ml of incomplete adjuvant. The resulting emulsion is used as antigen and administered to rats subcutaneously through the sole. On the 12th day after the administration, heads of the rats are cut to collect blood. Thus, antiserum is prepared.
# Upon evaluating antiasthmatic activity, concentration of the antiserum is adjusted so that diameter of blue-dyed portion is about 8 to about 10 mm.
# Six rats are used per group. 0.05 ml of the antiserum is intracutaneously administered to each of the previously back-shaved rats to sensitize. After 17 hours, compound I or the solutions thereof (physiological salt solution or CMC solution) are respectively administered and, after 60 minutes, an antigen mixture (1% Evans' Blue physiological salt solution containing 0.2% egg albumin) is injected intravenously in an amount of 0.5 ml/100 g to induce PCA. response. After 30 minutes, rats are choked to death followed by cutting out skin to measure the diameter of blue-dyed portion. The results are evaluated by awarding a score according to the diameter of blue―dved portion. Furthermore, ratios of the diameters to that of solvent (psysiological salt solution or CMC) administered group are snowing a depressing ratio of 50% or more calculated according to the following formula are concluded to show positive antiasthmatic activity. Also, the minimum effective dose (MED) is determined from the results with respective doses to compare the strength of entrasthamatis activity.
# [1] = given 60 minutes before antigen, read-out: depressing ratio
Structure (SMILES),MLD (male dd-strain mice; ip) [mg/kg],MLD (male dd-strain mice; po) [mg/kg],minimal effective dose (PCA response) [mg/kg],inhibition in vivo at 10 mg/kg (PCA response; [1]) [%],inhibition in vivo at 25 mg/kg (PCA response; [1]) [%],inhibition in vivo at 50 mg/kg (PCA response; [1]) [%],inhibition in vivo at 100 mg/kg (PCA response; [1]) [%],inhibition in vivo at 2.5 mg/kg (PCA response; [1]) [%],inhibition in vivo at 5 mg/kg (PCA response; [1]) [%],"inhibition in vivo at 1 mg/kg (PCA response; Dose 1 mg/Kg PO, given 60 minutes before antigen, read-out: depressing ratio) [%]"
"CCc1ccc2c(c1)C(SCCN(C(C)C)C(C)C)c1ccccc1CO2 (stereo not drawn) [Compound 9, 2-ethyl-11-[2-(diisopropylamino)ethyl]thio-6,11-dihydrodibenz[b,e]oxepin]",>100,>300,25,22,67,100,100,,,
"Cc1ccc2c(c1)OCc1ccccc1C2SCCN(C)C (stereo not drawn) [Compound 11, 3-methyl-11-[2-(dimethylamino)ethyl]thio-6,11-dihydrodibenz[b,e]oxepin]",>100,>300,50,0,28,61,61,,,
"CC(C)N(CCSC1c2ccccc2COc2ccc(F)cc21)C(C)C (stereo not drawn) [Compound 10, 2-fluoro-11-[2-(diisopropylamino)ethyl]thio-6,11-dihydrodibenz[b,e]oxepin]",>100,>300,100,0,11,11,73,,,
"CCc1ccc2c(c1)C(SCCN(C)C)c1ccccc1CO2 (stereo not drawn) [Compound 7, 2-ethyl-11-[2-(dimethylamino)ethyl]thio-6,11-dihydrodibenz[b,e]oxepin]",>100,>300,5,100,100,100,100,30,81,
"CCc1ccc2c(c1)C(SCCN(CC)CC)c1ccccc1CO2 (stereo not drawn) [Compound 5, 2-ethyl-11-[2-(diethylamino)ethyl]thio-6,11-dihydrodibenz[b,e]oxepin]",100,>300,10,56,100,100,100,,36,
"CCN(CC)CCSC1c2ccccc2COc2c(C)cccc21 (stereo not drawn) [Compound 3, 4-methyl-11-[2-(diethylamino)ethyl]thio-6,11-dihydrodibenz[b,e]oxepin]",>100,>300,100,,,14,52,,,
"CCN(CC)CCSC1c2ccccc2COc2ccc(Cl)cc21 (stereo not drawn) [Compound 4, 2-chloro-11-[2-(diethylamino)ethyl]thio-6,11-dihydrodibenz[b,e]oxepin]",>100,>300,50,10,46,100,100,,,
"CN(C)CCSC1c2ccccc2COc2ccc(F)cc21 (stereo not drawn) [Compound 8, 2-fluoro-11-[2-(dimethylamino)ethyl]thio-6,11-dihydrodibenz[b,e]oxepin]",>100,>300,25,33,100,100,100,,23,
"Cc1ccc2c(c1)C(SCCN(C)C)c1ccccc1CO2 (stereo not drawn) [Compound 1, 2-methyl-11-[2-(dimethylamino)ethyl]thio-6,11-dihydrodibenz[b,e]oxepin]",>100,>300,2.5,100,100,100,100,81,100,49
"CCN(CC)CCSC1c2ccccc2COc2ccc(C)cc21 (stereo not drawn) [Compound 2, 2-methyl-11-[2-(diethylamino)ethyl]thio-6,11-dihydrodibenz[b,e]oxepin]",>100,>300,10,52,100,100,100,20,40,
"CCN(CC)CCSC1c2ccccc2COc2ccc(F)cc21 (stereo not drawn) [Compound 6, 2-fluoro-11-[2-(diethylamino)ethyl]thio-6,11-dihydrodibenz[b,e]oxepin]",>100,>300,25,3,84,100,100,,,
